In general, IC50 refers to the point on the concentration scale where inhibition reaches its midpoint. Read a low IC50 as higher potency.

The test deals with EGFR (mouse) (UniProt P00533). The conditions noted are these: nih3t3 fibroblast.
On to `Cc1c[nH]c(/C=C2\C(=O)Nc3cccc(C)c32)c1CCC(=O)O`, for which the IC50 was found to be 28.8 µM. In the case of `Cc1[nH]c(/C=C2\C(=O)Nc3cc(-c4ccccc4)ccc32)c(C)c1CCC(=O)O` it was 21.9 µM. In the case of `Cc1[nH]c(/C=C2\C(=O)Nc3ccc(C(=O)O)cc32)c(C)c1CCC(=O)O` it was more than 50 µM; in that of `COc1ccc2c(c1)NC(=O)/C2=C\c1[nH]cc(CCC(=O)O)c1C`, more than 50 µM; in that of `Cc1c(CCC(=O)O)c[nH]c1/C=C1\C(=O)Nc2ccc(C(=O)O)cc21`, more than 50 µM. On to `Cc1c(CCC(=O)O)c[nH]c1/C=C1\C(=O)Nc2cc(-c3ccccc3)ccc21`, for which the IC50 amounted to 21.8 µM. Under `Cc1c[nH]c(/C=C2\C(=O)Nc3ccc(Br)cc32)c1CCC(=O)O` stands more than 50 µM.

For `Cc1c[nH]c(/C=C2\C(=O)Nc3ccccc32)c1CCC(=O)O`, the half-maximal inhibitory concentration (IC50) is more than 50 µM.

`Cc1c(CCC(=O)O)c[nH]c1/C=C1\C(=O)Nc2ccccc21` showed an IC50 of more than 50 µM. As to `COc1ccccc1-c1ccc2c(c1)NC(=O)/C2=C\c1[nH]cc(CCC(=O)O)c1C`, the IC50 was determined as 19.2 µM. This lies in the double-digit micromolar range. In the case of `COc1ccc2c(c1)NC(=O)/C2=C\c1[nH]c(C)c(CCC(=O)O)c1C` it was more than 50 µM; in that of `Cc1[nH]c(/C=C2\C(=O)Nc3ccc(Br)cc32)c(C)c1CCC(=O)O`, more than 50 µM; in that of `COc1cccc(-c2ccc3c(c2)NC(=O)/C3=C\c2[nH]cc(C)c2CCC(=O)O)c1`, 49.2 µM. Under `CCOc1cccc(-c2ccc3c(c2)NC(=O)/C3=C\c2[nH]cc(C)c2CCC(=O)O)c1` stands more than 50 µM. In the case of `COc1cccc(-c2ccc3c(c2)NC(=O)/C3=C\c2[nH]c(C)c(CCC(=O)O)c2C)c1` it was 24.1 µM; in that of `Cc1c(CCC(=O)O)c[nH]c1/C=C1\C(=O)Nc2ccc(S(N)(=O)=O)cc21`, more than 50 µM.

The values are drawn from the Kinase Knowledgebase extract (Sharma et al. 2016).
